Entries after “also recorded” stand apart in the source; their conditions may differ.
Assays:
[1] = test system: epithelium; assay: Corrosiveness/damage to the epithelium; conditions: compared with BAC
[2] = test system: pig eyes with intact epithelium; assay: Relative fluorescence F/Fo of cross-linked corneal flaps, Polidocanol vs BAC riboflavin solutions (Study 4); conditions: 20 min soak, 30 mW/cm^2, FIGS. 7-15
Method: The epitheliums of eyes in Group A were removed with a dull blade after the eyes were soaked in one of the solutions and irradiated pan-corneally on air with a top hat beam (3% root mean square) for 4 minutes with 365-nm light source (UV LED NCSU033B[T]; Nichia Co., Tokushima, Japan) at a chosen irradiance of 30 mW/cm^2 which was measured with a power sensor (model PD-300-UV; Ophir, Inc., Jerusalem, Israel) at the corneal surface. Corneal flaps (approximately 200 μm thick) were excised from the eyes with aid of an Intralase femtosecond laser (Abbot Medical Optics, Santa Ana, Calif.). The average thickness of the corneal flaps was calculated as a difference between the measurements before and after the excision from the eyes with an ultrasonic Pachymeter (DGH Technology, Exton, Pa.). The flaps were washed with distilled water and dried in a vacuum until the weight change became less than 10% (Rotary vane vacuum pump RV3 A652-01-903, BOC Edwards, West Sussex, UK). […] Papain digests were diluted 0.5 times with 1×BBBS and fluorescence of the solutions was measured with excitation of 360 nm in a QM-40 Spectrofluorometer (Photon Technology Int., London, Ontario, Canada). The fluorescence of the papain buffer was taken into account by measuring fluorescence in the absence of tissue and subtracting this value from the fluorescence of the samples. […]

With “Polyoxyethylene (9) lauryl ether [Polidocanol]” the “corrosive and damaging to the epithelium” value [1] was “less corrosive and damaging to the epithelium than BAC” and the “enhancing permeability in the epithelium and generating cross-linking activity” value [2] was “more effective than many other surfactants; also recorded: far more effective and efficient than BAC”.
